Reference: PubChem BioAssay AID1259348 (Broad Institute, 2017)
Activity calls are given as the source filed them.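 The calls were made as follows: active = any compound with an IC50 of 100 nM or lower; inactive = the rest.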

Molecular target: Insulin-degrading enzyme (Homo sapiens) (UniProt P14735)
Assay: inhibitors of IDE decapeptide proteolysis, dose response, counter-screen for IDE exo-site inhibitor project, biochemical, kinetic mode (AID 1259348);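 as to z-score: purified IDE bound to fluorescein-labelled 6b probe FL-6b at the exo-site; probe displacement lowers polarization so hits show a drop in FP signal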
Details: purified human IDE, fluorogenic decapeptide proteolysis; for z-score: measured here: primary FP probe displacement screen, stronger effect = lower value

Insulin-degrading enzyme (Homo sapiens), sequence (P14735 42-1019 limits assumed): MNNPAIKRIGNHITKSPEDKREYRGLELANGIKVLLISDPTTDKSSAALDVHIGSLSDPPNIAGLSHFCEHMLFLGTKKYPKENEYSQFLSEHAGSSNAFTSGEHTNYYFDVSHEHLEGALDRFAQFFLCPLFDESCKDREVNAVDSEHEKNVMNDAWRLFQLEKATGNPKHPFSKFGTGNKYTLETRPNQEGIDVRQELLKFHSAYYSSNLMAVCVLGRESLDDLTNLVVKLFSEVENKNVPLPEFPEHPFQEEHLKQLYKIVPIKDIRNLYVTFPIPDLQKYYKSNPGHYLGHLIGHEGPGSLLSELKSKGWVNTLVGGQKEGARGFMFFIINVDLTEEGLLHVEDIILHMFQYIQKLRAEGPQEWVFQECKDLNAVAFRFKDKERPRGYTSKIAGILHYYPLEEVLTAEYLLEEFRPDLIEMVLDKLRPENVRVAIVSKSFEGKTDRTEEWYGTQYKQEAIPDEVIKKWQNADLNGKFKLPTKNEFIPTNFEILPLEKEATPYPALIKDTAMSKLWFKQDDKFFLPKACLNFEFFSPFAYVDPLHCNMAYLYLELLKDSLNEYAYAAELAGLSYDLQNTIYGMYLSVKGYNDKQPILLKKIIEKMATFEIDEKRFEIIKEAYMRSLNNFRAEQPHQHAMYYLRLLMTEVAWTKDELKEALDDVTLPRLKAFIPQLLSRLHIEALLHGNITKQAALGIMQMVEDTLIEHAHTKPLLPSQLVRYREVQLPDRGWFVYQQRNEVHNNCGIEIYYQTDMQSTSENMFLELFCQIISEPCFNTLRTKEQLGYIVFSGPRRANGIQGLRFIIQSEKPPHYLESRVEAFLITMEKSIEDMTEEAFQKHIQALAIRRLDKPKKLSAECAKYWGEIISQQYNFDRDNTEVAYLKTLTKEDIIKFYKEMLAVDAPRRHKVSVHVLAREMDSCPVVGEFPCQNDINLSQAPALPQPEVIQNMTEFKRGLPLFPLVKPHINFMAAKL

## CCCNC(=O)N1CC(=O)N2[C@@H](CO)[C@H](c3ccc(-c4cccc(C)c4)cc3)[C@@H]2C1
  IC50: 2.4 µM
  z-score: -15.8

## Cc1ccccc1-c1ccc([C@H]2[C@@H](CO)N3CCCCN(Cc4cccnc4)C[C@H]23)cc1
  IC50: 4.8 µM
  z-score: -11.4

## OC[C@H]1[C@@H](c2ccc(C#Cc3ccccc3)cc2)[C@@H]2CN(Cc3cncnc3)CCCCN12
  IC50: 4.3 µM
  z-score: -16.2

## Cc1ccccc1-c1ccc([C@@H]2[C@H]3CN(S(=O)(=O)c4cn(C)cn4)CCCCN3[C@H]2CO)cc1
  IC50: 1.7 µM
  z-score: -18.5

## Cc1ccccc1-c1ccc([C@H]2[C@@H](CO)N3CCCCN(S(=O)(=O)c4cn(C)cn4)C[C@H]23)cc1
  IC50: 2.2 µM
  z-score: -16.6

## Cc1ccccc1-c1ccc([C@H]2[C@H](CO)N3C(=O)CN(C(=O)c4cccnc4)C[C@@H]23)cc1
  IC50: 6.1 µM
  z-score: -12.4

## Cc1ccccc1-c1ccc([C@H]2[C@H](CO)N3C(=O)CN(C(=O)Cc4ccccn4)C[C@@H]23)cc1
  IC50: 4.4 µM
  z-score: -13.9

## CCCNC(=O)N1CC(=O)N2[C@@H](CO)[C@@H](c3ccc(C#Cc4cccc(OC)c4)cc3)[C@@H]2C1
  IC50: 11 µM
  z-score: -1.33

## Cc1cccc(-c2ccc([C@@H]3[C@@H](CO)N4CCCCN(S(=O)(=O)c5cccc(C)c5)C[C@@H]34)cc2)c1
  IC50: 1 µM
  z-score: -9.77

## Cc1cccc(-c2ccc([C@H]3[C@@H](CO)N4CCCCN(Cc5cccnc5)C[C@H]34)cc2)c1
  IC50: 10.7 µM
  z-score: -6.79

## Cc1ccccc1-c1ccc([C@H]2[C@@H](CO)N3CCCCN(S(C)(=O)=O)C[C@@H]23)cc1
  IC50: > 100 µM (inactive)
  z-score: -2.31

## CO[C@H]1CN(C)C(=O)c2cc(NC(=O)c3ccc(Oc4ccccc4)cc3)ccc2OC[C@H](C)NC[C@H]1C
  IC50: 2.8 µM
  z-score: -14.2

## O=C(NC1CCCC1)N1CCCCN2[C@H](C1)[C@H](c1ccc(/C=C/c3ccccc3)cc1)[C@@H]2CO
  IC50: 11.5 µM
  z-score: -13.2

## Cc1ccccc1-c1ccc([C@@H]2[C@@H](CO)N3CCCCN(S(=O)(=O)c4ccc(F)cc4)C[C@@H]23)cc1
  IC50: 0.34 µM
  z-score: -17.5

## Cc1cccc(-c2ccc([C@@H]3[C@H](CO)N4CCCCN(S(=O)(=O)c5cn(C)cn5)C[C@@H]34)cc2)c1
  IC50: 2.1 µM
  z-score: -19.5

## Cc1cccc(-c2ccc([C@@H]3[C@@H](CO)N4C(=O)CN(C(=O)NC5CCCCC5)C[C@@H]34)cc2)c1
  IC50: 0.67 µM
  z-score: -16.6

## CO[C@H]1CN(C)C(=O)c2cc(NC(=O)c3ccc(Oc4ccccc4)cc3)ccc2OC[C@@H](C)NC[C@@H]1C
  IC50: 2.9 µM
  z-score: -13.2

## Cc1cccc(-c2ccc([C@@H]3[C@@H](CO)N4CCCCN(S(=O)(=O)c5cn(C)cn5)C[C@@H]34)cc2)c1
  IC50: 0.9 µM
  z-score: -17.5

## Cc1ccccc1-c1ccc([C@@H]2[C@@H](CO)N3CCCCN(C(=O)c4cccnc4)C[C@@H]23)cc1
  IC50: 13 µM
  z-score: -7.98

## Cc1cccc(-c2ccc([C@@H]3[C@@H](CO)N4CCCCN(Cc5cncnc5)C[C@@H]34)cc2)c1
  IC50: 11.9 µM
  z-score: -6.65

## CCCNC(=O)N1CC(=O)N2[C@H](CO)[C@@H](c3ccc(-c4cccc(C)c4)cc3)[C@@H]2C1
  IC50: 0.77 µM
  z-score: -22.4

## Cc1ccccc1-c1ccc([C@H]2[C@@H](CO)N3CCCCN(CC4CC4)C[C@@H]23)cc1
  IC50: 45 µM
  z-score: -3.48

## O=C(c1ccccn1)N1CC(=O)N2[C@@H](CO)[C@@H](c3ccc(C#Cc4ccccc4)cc3)[C@@H]2C1
  IC50: 5.2 µM
  z-score: -19.9

## Cc1ccccc1-c1ccc([C@@H]2[C@H](CO)N3CCCCN(C(=O)Cc4ccccn4)C[C@@H]23)cc1
  IC50: 4.9 µM
  z-score: -15.5

## Cc1ccccc1-c1ccc([C@H]2[C@@H](CO)N3CCCCN(C(=O)c4cccnc4)C[C@@H]23)cc1
  IC50: 12.5 µM
  z-score: -4.79

## COc1cccc(C#Cc2ccc([C@@H]3[C@H](CO)N4C(=O)CN(C(=O)Cc5cccnc5)C[C@@H]34)cc2)c1
  IC50: 6.2 µM
  z-score: -4.12

## COc1cccc(-c2ccc([C@@H]3[C@@H](CO)N4CCCCN(C(=O)Cc5ccncc5)C[C@@H]34)cc2)c1
  IC50: 14.7 µM
  z-score: -2.33

## COc1ccccc1-c1ccc([C@@H]2[C@@H](C#N)N(C(=O)c3cccnc3)[C@@H]2CO)cc1
  IC50: 1.2 µM
  z-score: -33.8

## Cc1ccccc1-c1ccc([C@@H]2[C@@H](CO)N3CCCCN(C(=O)NC4CCCC4)C[C@H]23)cc1
  IC50: 3.6 µM
  z-score: -14.5

## CC(C)NC(=O)N1CCCCN2[C@@H](CO)[C@H](c3ccc(C#Cc4ccccc4F)cc3)[C@@H]2C1
  IC50: 1.2 µM
  z-score: -12.7

## COc1ccccc1-c1ccc([C@@H]2[C@@H](C#N)N(C(=O)CN(C)C)[C@H]2CO)cc1
  IC50: 5.2 µM
  z-score: -12.4

## Cc1cccc(-c2ccc([C@H]3[C@@H](CO)N4CCCCN(C(=O)c5ccncc5)C[C@H]34)cc2)c1
  IC50: 3 µM
  z-score: -18.3

## CO[C@@H]1CN(C)C(=O)c2cc(NC(=O)c3ccc(Oc4ccccc4)cc3)ccc2OC[C@@H](C)NC[C@@H]1C
  IC50: 2.4 µM
  z-score: -11.5

## Cc1cccc(-c2ccc([C@@H]3[C@@H](CO)N4C(=O)CN(C(=O)c5cnccn5)C[C@@H]34)cc2)c1
  IC50: 5 µM
  z-score: -17.5

## Cc1cccc(-c2ccc([C@@H]3[C@@H](CO)N4CCCCN(C(=O)c5cccnc5)C[C@@H]34)cc2)c1
  IC50: > 100 µM (inactive)
  z-score: -3.25

## COc1ccccc1-c1ccc([C@H]2[C@@H](CO)N(C(=O)NC(C)C)[C@H]2C#N)cc1
  IC50: 20 µM
  z-score: -16.3

## COc1ccccc1-c1ccc([C@H]2[C@H](C#N)N[C@@H]2CO)cc1
  IC50: 6.3 µM
  z-score: -12

## Cc1ccccc1-c1ccc([C@@H]2[C@@H](CO)N3CCCCN(C(=O)Cc4ccccn4)C[C@@H]23)cc1
  IC50: 11.5 µM
  z-score: -9.54

## COc1ccccc1-c1ccc([C@H]2[C@@H](CO)N3CCCCN(C(=O)NC4CCCC4)C[C@H]23)cc1
  IC50: 2.6 µM
  z-score: -19.1

## COc1ccccc1-c1ccc([C@H]2[C@@H](CO)N3CCCCN(C(=O)c4cccnc4)C[C@H]23)cc1
  IC50: 13.2 µM
  z-score: -12.8

## COCC(=O)N1CCCCN2[C@H](CO)[C@@H](c3ccc(-c4cccc(C)c4)cc3)[C@@H]2C1
  IC50: 16 µM
  z-score: -5.29

## CCS(=O)(=O)N1CCCCN2[C@@H](CO)[C@@H](c3ccc(C#Cc4ccccc4OC)cc3)[C@@H]2C1
  IC50: 1.8 µM
  z-score: -19.7

## COc1cccc(-c2ccc([C@@H]3[C@@H](CO)N4CCCCN(CC5CC5)C[C@@H]34)cc2)c1
  IC50: 22.5 µM
  z-score: -2.88

## Cc1ccccc1-c1ccc([C@H]2[C@@H](CO)N3CCCCN(C(=O)Nc4cccc(F)c4)C[C@@H]23)cc1
  IC50: 3.8 µM
  z-score: -4.36

## Cc1ccccc1-c1ccc([C@@H]2[C@@H](CO)N3C(=O)CN(C(=O)Cc4ccccn4)C[C@@H]23)cc1
  IC50: 2.7 µM
  z-score: -19.9

## O=C(CC1CC1)N1CC(=O)N2[C@H](C1)[C@H](c1ccc(C#Cc3ccccc3)cc1)[C@@H]2CO
  IC50: 7.1 µM
  z-score: -15.9

## Cc1cccc(-c2ccc([C@@H]3[C@H]4CN(C(=O)c5ccncc5)CCCCN4[C@H]3CO)cc2)c1
  IC50: 4.9 µM
  z-score: -17

## COc1cccc(C#Cc2ccc([C@@H]3[C@H](CO)N4C(=O)CN(C(C)=O)C[C@@H]34)cc2)c1
  IC50: 3.7 µM
  z-score: -15.3

## Cc1ccccc1-c1ccc([C@H]2[C@@H](CO)N3CCCCN(C(=O)CN4CCOCC4)C[C@@H]23)cc1
  IC50: 25 µM
  z-score: 0.13

## Cc1ccccc1-c1ccc([C@@H]2[C@H]3CN(C(=O)Cc4ccccn4)CC(=O)N3[C@H]2CO)cc1
  IC50: 2 µM
  z-score: -17.7

## Cc1ccccc1-c1ccc([C@H]2[C@@H](CO)N3CCCCN(S(=O)(=O)Cc4ccccc4)C[C@@H]23)cc1
  IC50: 44 µM
  z-score: -1.65

## Cc1ccccc1-c1ccc(C2[C@@H]3CN(C(=O)c4cnccn4)C[C@H]2N3)cc1 (some centres undefined)
  IC50: 2 µM
  z-score: -20

## Cc1ccccc1-c1ccc([C@H]2[C@H](CO)N3CCCCN(CC4CC4)C[C@@H]23)cc1
  IC50: 30 µM
  z-score: -2.04

## Cc1ccccc1-c1ccc([C@H]2[C@@H](CO)N3CCCCN(S(=O)(=O)c4ccc(F)cc4)C[C@@H]23)cc1
  IC50: 85 µM
  z-score: 3.66

## Cc1cccc(-c2ccc([C@@H]3[C@H](CO)N4CCCCN(S(=O)(=O)c5ccccc5F)C[C@@H]34)cc2)c1
  IC50: 0.55 µM
  z-score: -22.1

## Cc1ccccc1-c1ccc([C@H]2[C@@H](CO)N3CCCCN(C(=O)Nc4ccc(F)cc4)C[C@@H]23)cc1
  IC50: 3 µM
  z-score: -1.63

## CCC(=O)N1[C@H](CO)[C@H](c2ccc(-c3ccccc3OC)cc2)[C@H]1CNC(C)=O
  IC50: 10.7 µM
  z-score: -8.24

## Cc1cccc(-c2ccc([C@@H]3[C@@H](CO)N4CCCCN(C(=O)c5ccncc5)C[C@@H]34)cc2)c1
  IC50: 16.5 µM
  z-score: -3.14

## Cc1cccc(-c2ccc([C@@H]3[C@@H](CO)N4C(=O)CN(C(=O)Cc5ccccn5)C[C@@H]34)cc2)c1
  IC50: 3.3 µM
  z-score: -11.8

## Cc1ccccc1-c1ccc([C@@H]2[C@H](CO)N3CCCCN(C(=O)NC4CCCC4)C[C@@H]23)cc1
  IC50: 1.55 µM
  z-score: -19

## Cc1ccccc1-c1ccc([C@H]2[C@@H](CO)N3CCCCN(C(=O)Nc4ccccc4)C[C@@H]23)cc1
  IC50: 2.9 µM
  z-score: -1.37

## Cc1ccccc1-c1ccc(C2[C@@H]3CN(C(=O)Cc4ccncc4)C[C@H]2N3)cc1 (some centres undefined)
  IC50: 2.2 µM
  z-score: -9.03

## Cc1ccccc1-c1ccc([C@H]2[C@@H](CO)N3CCCCN(C(=O)NC4CCCC4)C[C@H]23)cc1
  IC50: 0.88 µM
  z-score: -17.3

## OC[C@H]1[C@@H](c2ccc(C#Cc3ccccc3F)cc2)[C@@H]2CN(Cc3cncnc3)CCCCN12
  IC50: 5.2 µM
  z-score: -15.1

## Cc1ccccc1-c1ccc([C@H]2[C@H](CO)N3C(=O)CN(S(C)(=O)=O)C[C@@H]23)cc1
  IC50: 17.5 µM
  z-score: -1.37

## Cc1ccccc1-c1ccc([C@H]2[C@H]3CN(C(=O)NC4CCCC4)CC(=O)N3[C@H]2CO)cc1
  IC50: 6 µM
  z-score: -12.4

## Cc1cccc(-c2ccc([C@H]3[C@H](CO)N4C(=O)CN(C(=O)NC5CCCCC5)C[C@@H]34)cc2)c1
  IC50: 3.2 µM
  z-score: -16.3
